# Assay results published in US20190060300A1, “Self-Emulsifying Compositions of CB2 Receptor Modulators” (priority 2016, published 2019).
# Experiments:
# CB2 receptor = CB2 receptor (Homo sapiens, UniProt P34972); conditions: Chicca A. et al; cited from earlier work
# [1] = Sköld et al. 2006; cited from earlier work
# [2] = test system: mouse model of schizophrenia (PCP); test: Forced-swimming test after oral BCP in SEDDS, PCP mouse model of schizophrenia; type: in vivo; conditions: gavage twice a week for 3 weeks, adolescent mice
# Method: (§1) The mouse model of schizophrenia was established.
# (§2) Sterile double-distilled water (DDW) was warmed for […] in a pre-warmed thermobath (35-38° C.). The SEDDS vehicle of the oral composition of Example 1 was warmed up separately to 35-38° C. for 10 min. In order to prepare BCP (5 mg/ml) for a final dose of 10 mg/kg, BCP (5 mg) was added directly into the vehicle (1 ml) and vortexed for 1 min to obtain the oral composition. Then the warmed sterile DDW (4 ml) at 35-38° C. was added at a ratio of 1:5 oral composition: DDW dilution and the diluted composition was vortexed for 1 min. In order to prepare BCP for a final dose of 5 mg/kg, 500 μl of BCP at 5 mg/ml were diluted with 500 μl SEDDS vehicle (1:2 dilution). Then the warmed sterile DDW (4 ml) at 35-38° C. was added at a ratio of 1:5 oral composition. DDW dilution and the diluted composition was vortexed for 1 min.
# (§3) BCP (5 mg/kg or 10 mg/kg in diluted self-emulsifying vehicle (Example 1)) was administered to adolescent mice (10 μl/g) by gavage twice a week (on Sunday and Wednesday) for 3 weeks (PND 43-62), a total of 6 injections. Control group and PCP-induced group received by gavage the oral formulation solution without the drug.
# Training was conducted for 6 min a day before the test. […] On the test day, the total duration/frequency of immobility and climbing was counted every 2 minutes for 6 minutes. […]
# [3] = test system: mouse model of schizophrenia (PCP); test: Open field test after oral BCP in SEDDS, PCP mouse model of schizophrenia; type: in vivo; conditions: 5 mg/kg BCP in SEDDS oral formulation, gavage, adolescent mice
# Method: as §1, §2
# (§4) BCP (5 mg/kg or 10 mg/kg in diluted self-emulsifying vehicle (Example 1)) was administered to adolescent mice (10 μl/g) by gavage twice a week (on Sunday and Wednesday) for 3 weeks (PND 43-62), a total of 6 injections. […]
# Each mouse was placed into the center of a clear open Plexiglas Chamber (40 cm*32 cm*30 cm) which its floor was divided to squares of 4 cm×5 cm. […] Ambulation behavior was manually counted for 8 min and data were collected in 2 min intervals.
# [4] = test system: mouse model of schizophrenia (PCP); test: Social interaction test in a novel environment after oral BCP in SEDDS, PCP mouse model; type: in vivo; conditions: 5 mg/kg BCP in SEDDS oral composition, gavage, adolescent mice
# Method: as §1, §2, §4
# Each mouse was placed in a novel cage together with a nonaggressive intruder mouse, of the same species, same sex and a similar age. The interaction between the two mice was recorded for 10 minutes with EthoVision software (Noldus). […]
# [5] = Body weight of mice treated orally with BCP in SEDDS; type: in vivo; conditions: 5 mg/kg BCP in SEDDS oral composition, gavage, adolescent mice
# Method: as §3
# [6] = test system: mouse model of schizophrenia (PCP); test: Forced-swimming test after oral BCP in canola oil, PCP mouse model of schizophrenia; type: in vivo, mice
# Method: as §1
# BCP was diluted in canola oil.
# BCP (10 mg/kg diluted in canola oil) was administered to adolescent mice (PND 4362) by gavage twice a week (on Sunday and Wednesday) for 3 weeks, a total of 6 gavages. Control group and PCP-induced group received by gavage the oil vehicle.
# Training was conducted for 6 min a day before the test. Each mouse was placed into a transparent glass cylinder filled with fresh water at 25° C. On the test day, the total dilation/frequency of immobility and climbing was counted every 2 minutes for 6 minutes. An increased immobility is an index of learning and habituation, therefore a positive behavioral adaptation with a stressful condition.
# [7] = air exposed, after 5 weeks; cited from earlier work
# [8] = according to its MSDS; cited from earlier work
# [9] = oral and topical administration, Chaves 2008; cited from earlier work
# [10] = Dissolution of MH in the SEDDS vehicle of Example 1; type: physicochemical
# Method: Preparation of MH in SEDDS vehicle. • 1. The SEDDS vehicle of the oral composition of Example 1 was warmed up separately to 42° C. for 13 min. In order to prepare about 5% (g/vol) MH solution, the vehicle (380 mg) was added to MH (22.8 mg) directly and vortexed for 60 sec to obtain the oral composition. • 2. The SEDDS vehicle of the oral composition of Example 1 was warmed up separately to 52° C. for 15 min. In order to prepare about 5% (g/vol) MH solution, the vehicle (380.18 mg) was added to MH (21.2 mg) directly and vortexed for 100 sec to obtain the oral composition. Then the solution was warmed up to 50° C. for 10 min. Then the solution was warmed up to 57° C. for 13 min and vortexed for 180 sec. • 3. The SEDDS vehicle of the oral composition of Example 1 was warmed up separately to 55° C. for 15 min. In order to prepare about 1% (g/vol) MH solution, the vehicle (396 mg) was added to MH (4 mg) directly and vortexed for 60 sec to obtain the oral composition. Then the solution was warmed up to 55° C. for 10 min and vortexed for 60 sec.
# [11] = Dissolution of MH in oral formulations V-01, V-02, V-03; type: physicochemical
# Method: The solution of 4-O-methylhonokiol (MH) was prepared in oral formulation according to Table 1 below.
# Chain of CB2 receptor (P34972 whole entry): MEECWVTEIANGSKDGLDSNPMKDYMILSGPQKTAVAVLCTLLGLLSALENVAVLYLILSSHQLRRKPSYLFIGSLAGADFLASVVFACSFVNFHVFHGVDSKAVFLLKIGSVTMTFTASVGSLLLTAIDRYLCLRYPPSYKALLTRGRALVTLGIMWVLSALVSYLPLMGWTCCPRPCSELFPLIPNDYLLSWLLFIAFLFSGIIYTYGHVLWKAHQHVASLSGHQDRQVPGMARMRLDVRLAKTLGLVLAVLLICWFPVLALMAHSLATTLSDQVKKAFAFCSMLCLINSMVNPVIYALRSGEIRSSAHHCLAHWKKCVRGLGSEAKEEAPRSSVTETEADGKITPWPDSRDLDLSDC
molecule,measurement,setting,value
"C=C1CC[C@H]2O[C@]2(C)CC[C@@H]2[C@@H]1CC2(C)C [BCP oxide, Caryophyllene oxide]",CB2 receptor binding,CB2 receptor,inactivity
same,allergenicity,[1],allergen
"trans-(1R,9S)-8-methylene4,11,11 trimethylbicyclo[7.2.0)]undec-4-ene [BCP]",effect of PCP in the forced-swim test,[2]; 5 mg/kg BCP in SEDDS oral formulation,reversed the effect of PCP
same,effect of PCP in the forced-swim test,[2]; 10 mg/kg BCP in SEDDS oral formulation,reversed the effect of PCP
same,effect of PCP on activity in the open field test,[3],reversed the effect of PCP
same,effect of PCP in the social interaction test,[4],reversed the effect of PCP
same,body weight,[5],did not affect their body weight
same,effect of 5 mg/kg PCP on the frequency of immobility in the forced swim test,"[6]; 10 mg/kg BCP in oil composition (canola oil), gavage twice a week for 3 weeks",did not reverse the effect
same,reversing the frequency of climbing in the forced-swim test,"[6]; BCP in oil, gavage",ineffective
same,original compound consumed by oxidation,[7],~50%
C/C1=C\CC/C(C)=C/CC(C)(C)/C=C/C1 [alpha-humulene],CB2 receptor binding,CB2 receptor,inactivity
same,irritancy,[8],"skin, eyes and respiratory irritant"
same,absorption,[9],rapid onset and relatively good absorption
"C=CCc1ccc(O)c(-c2ccc(OC)c(CC=C)c2)c1 [MH, 4-O-methylhonokiol]",dissolution of MH in SEDDS vehicle,"[10]; about 1% (g/vol) MH, solution warmed up to 55° C. for 10 min, vortexed 60 sec",dissolved
same,dissolution of MH in SEDDS vehicle,"[10]; about 1% (g/vol) MH, vehicle warmed to 55° C., vortexed 60 sec",did not dissolve
same,dissolution of MH in SEDDS vehicle,"[10]; about 5% (g/vol) MH, solution warmed up to 50° C. for 10 min",did not dissolve
same,dissolution of MH in SEDDS vehicle,"[10]; about 5% (g/vol) MH, solution warmed up to 57° C. for 13 min, vortexed 180 sec",dissolved
same,dissolution of MH in SEDDS vehicle,"[10]; about 5% (g/vol) MH, vehicle warmed to 42° C., vortexed 60 sec",did not dissolve
same,dissolution of MH in SEDDS vehicle,"[10]; about 5% (g/vol) MH, vehicle warmed to 52° C., vortexed 100 sec",did not dissolve
same,dissolution of MH in oral formulation,[11]; in V-01,dissolved
same,dissolution of MH in oral formulation,[11]; in V-02,dissolved
same,dissolution of MH in oral formulation,[11]; in V-03,dissolved
